# Experimental data: PubChem BioAssay AID1963972 (Molecular Pharmacology Branch, DTP, NCI, 2024)
# Tested on: 945468-187-T-J2-PDC spheroids viability
# Assay: Anticancer human tumor 945468-187-T-J2-PDC patient-derived rectal carcinoma cell line growth inhibition [PI3K]
# Conditions: spheroids with HUVEC and MSC; for IC50: curve of first compound; for viability, T/C: stronger effect = lower value
# Text: Combinatorial screen of targeted agents with the PI3K inhibitors inavolisib, alpelisib, duvelisib, and copanlisib in multi-cell type tumor spheroids
# A high-throughput screen of multi-cell type tumor spheroids was designed to identify active combinations of targeted small molecules and PI3K pathway inhibitors. Complex spheroids include a stromal component modeled by human endothelial cells (HUVEC) and fibroblasts modeled by human mesenchymal stem cells (MSCs). The concentration ranges selected for each drug and investigational agent were based upon clinically achievable concentrations if the clinical Cmax of the agent was known.
# Compounds. The drugs and investigational agents: inavolisib (NSC800729), alpelisib (NSC765974), duvelisib (NSC772469), copanlisib (NSC816437), ipatasertib (NSC767898), afuresertib (NSC778305), talazoparib (NSC767125), sapanisertib (NSC764658), selumetinib (NSC741078), tovorafenib (DAY101, NSC766906), vemurafenib (NSC761431), ravoxertinib (NSC781343), sotorasib (NSC818433), MRTX1133 (NSC 836407), abemaciclib (NSC 768073), palbociclib (NSC758247), venetoclax (NSC 766270), SY5609 (NSC837396), enzalutamide (NSC755605), and darolutamide (NSC825331), were obtained from the National Cancer Institute (NCI) Developmental Therapeutics Program Chemical Repository. The FDA-approved anticancer drug set is available from the NCI Developmental Therapeutics Program. […] The stock solutions were prepared in dimethyl sulfoxide (DMSO, Sigma-Aldrich, St. Louis, MO, cat. D2650) at 800-fold the tested concentration and stored at -70 degrees C prior to their use. All drugs and investigational agents were tested over a range starting from a high concentration at or near the clinical Cmax and decreasing in half-log increments. If the clinical Cmax for an agent had not been determined, the highest concentration tested was 10 microM.
# Cell Culture. All cells were maintained in an incubator at 37 degrees C and 5% CO2 with 95% humidity. The PDC lines were cultured according to standard operating procedures established by the NCI PDMR (https://pdmr.cancer.gov/sops/default.htm). All PDCs were thawed and cultured in Matrigel-coated flasks prepared with a working solution of 1X Ham's F-12 nutrient mix, without supplementation (Invitrogen, Waltham, MA, cat. 11765054), 100 U/mL penicillin-streptomycin (Invitrogen, cat. 15140122), and 2.5% Matrigel (Corning Inc., Corning, NY, cat. 354248) for the first three passages. The 354836-022-R-J1-PDC, 475296-252-R-J1-PDC, and 997726-040-R-J2-PDC lines were cultured in 6A media, which includes advanced DMEM/F-12 (Thermo Fisher Scientific, cat. 12634028), 10 mM HEPES (Thermo Fisher Scientific, cat. 15630080), 1X GlutaMAX supplement (Thermo Fisher Scientific, cat. 35050061), 0.1 mg/mL primocin (InvivoGen, San Diego, CA, cat. ant-pm-2), 10% defined fetal bovine serum, heat inactivated (HyClone Laboratories Inc., Logan, UT, cat. SH30070.03HI), 50% L-WRN conditioned media (ATCC, cat. CRL-3276), 1.25 mM N-Acetyl-L-cysteine (Sigma-Aldrich, cat. A9165), 10 mM nicotinamide (Sigma-Aldrich, cat. N0636), 1X B-27 supplement (Thermo Fisher Scientific, cat. 17504044), 1X N-2 supplement (Thermo Fisher Scientific, cat. 17502048), and 10 microM Y-27632 dihydrochloride (Tocris Bioscience, Bristol, United Kingdom, cat. 1254). The 624824-186-R-J2-PDC line was cultured in 6C/Colon 1B media, which includes all 6A media components plus 50 ng/mL human EGF recombinant protein (Thermo Fisher Scientific, cat. PHG0311). […]
# [1] = second compound 0.0316 µM, first compound 0.0316 µM
# [2] = second compound 0.0316 µM, first compound 0.1 µM
# [3] = second compound 0.0316 µM, first compound 0.316 µM
# [4] = second compound 0.0316 µM, first compound 1 µM
# [5] = second compound 0.0316 µM, first compound 3.16 µM
# [6] = second compound 0.0316 µM, first compound 10 µM
# [7] = second compound 0.1 µM, first compound 0.0316 µM
# [8] = second compound 0.1 µM, first compound 0.1 µM
# [9] = second compound 0.1 µM, first compound 0.316 µM
# [10] = second compound 0.1 µM, first compound 1 µM
# [11] = second compound 0.1 µM, first compound 3.16 µM
# [12] = second compound 0.1 µM, first compound 10 µM
# [13] = second compound 0.316 µM, first compound 0.0316 µM
# [14] = second compound 0.316 µM, first compound 0.1 µM
# [15] = second compound 0.316 µM, first compound 0.316 µM
# [16] = second compound 0.316 µM, first compound 1 µM
# [17] = second compound 0.316 µM, first compound 3.16 µM
# [18] = second compound 0.316 µM, first compound 10 µM
# [19] = second compound 1 µM, first compound 0.0316 µM
# [20] = second compound 1 µM, first compound 0.1 µM
# [21] = second compound 1 µM, first compound 0.316 µM
# [22] = second compound 1 µM, first compound 1 µM
# [23] = second compound 1 µM, first compound 3.16 µM
# [24] = second compound 1 µM, first compound 10 µM
# 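Note: spheroids exposed to compounds for seven days before reading.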
structure (smiles),measurement,setting,value
C=CC(=O)N1CCN(c2nc(=O)n(-c3c(C)ccnc3C(C)C)c3nc(-c4c(O)cccc4F)c(F)cc23)C(C)C1 (centres undefined) + COc1c(OCCCN2CCOCC2)ccc2c3n(c(=NC(=O)c4cnc(N)nc4)nc12)CCN3,IC50,second compound 0.00316 µM,> 10 µM
same,IC50,second compound 0.01 µM,> 10 µM
same,IC50,second compound 0.0316 µM,> 10 µM
same,IC50,second compound 0.1 µM,> 10 µM
same,IC50,second compound 0.316 µM,< 0.0316 µM
same,IC50,second compound 1 µM,< 0.0316 µM
same,"viability, T/C","second compound 0.00316 µM, first compound 0.0316 µM",92.6%
same,"viability, T/C","second compound 0.00316 µM, first compound 0.1 µM",99.4%
same,"viability, T/C","second compound 0.00316 µM, first compound 0.316 µM",107%
same,"viability, T/C","second compound 0.00316 µM, first compound 1 µM",98.4%
same,"viability, T/C","second compound 0.00316 µM, first compound 3.16 µM",103%
same,"viability, T/C","second compound 0.00316 µM, first compound 10 µM",120%
same,"viability, T/C","second compound 0.01 µM, first compound 0.0316 µM",94.6%
same,"viability, T/C","second compound 0.01 µM, first compound 0.1 µM",100%
same,"viability, T/C","second compound 0.01 µM, first compound 0.316 µM",82.8%
same,"viability, T/C","second compound 0.01 µM, first compound 1 µM",96.1%
same,"viability, T/C","second compound 0.01 µM, first compound 3.16 µM",98%
same,"viability, T/C","second compound 0.01 µM, first compound 10 µM",117%
same,"viability, T/C",[1],90.6%
same,"viability, T/C",[2],90.1%
same,"viability, T/C",[3],108%
same,"viability, T/C",[4],108%
same,"viability, T/C",[5],94.7%
same,"viability, T/C",[6],97.3%
same,"viability, T/C",[7],81.4%
same,"viability, T/C",[8],98.1%
same,"viability, T/C",[9],73.1%
same,"viability, T/C",[10],85.6%
same,"viability, T/C",[11],85%
same,"viability, T/C",[12],93.2%
same,"viability, T/C",[13],36.9%
same,"viability, T/C",[14],37.9%
same,"viability, T/C",[15],51.2%
same,"viability, T/C",[16],46.7%
same,"viability, T/C",[17],37.2%
same,"viability, T/C",[18],48.5%
same,"viability, T/C",[19],17.9%
same,"viability, T/C",[20],21.1%
same,"viability, T/C",[21],21.7%
same,"viability, T/C",[22],20.7%
same,"viability, T/C",[23],22.7%
same,"viability, T/C",[24],20.9%
CC(C)NCC(C(=O)N1CCN(c2ncnc3c2C(C)CC3O)CC1)c1ccc(Cl)cc1 (centres undefined) + Cc1nc(NC(=O)N2CCCC2C(N)=O)sc1-c1ccnc(C(C)(C)C(F)(F)F)c1,IC50,second compound 0.0316 µM,> 10 µM
same,IC50,second compound 0.1 µM,> 10 µM
same,IC50,second compound 0.316 µM,> 10 µM
same,IC50,second compound 1 µM,> 10 µM
same,IC50,second compound 3.16 µM,> 10 µM
same,IC50,second compound 10 µM,> 10 µM
same,"viability, T/C",[1],110%
same,"viability, T/C",[2],138%
same,"viability, T/C",[3],140%
same,"viability, T/C",[4],110%
same,"viability, T/C",[5],108%
same,"viability, T/C",[6],96.8%
same,"viability, T/C",[7],111%
same,"viability, T/C",[8],109%
same,"viability, T/C",[9],125%
same,"viability, T/C",[10],103%
same,"viability, T/C",[11],106%
same,"viability, T/C",[12],115%
same,"viability, T/C",[13],99%
same,"viability, T/C",[14],117%
same,"viability, T/C",[15],99.7%
same,"viability, T/C",[16],87.8%
same,"viability, T/C",[17],119%
same,"viability, T/C",[18],98.4%
same,"viability, T/C",[19],106%
same,"viability, T/C",[20],119%
same,"viability, T/C",[21],109%
same,"viability, T/C",[22],88.6%
same,"viability, T/C",[23],121%
same,"viability, T/C",[24],98.6%
same,"viability, T/C","second compound 3.16 µM, first compound 0.0316 µM",79.6%
same,"viability, T/C","second compound 3.16 µM, first compound 0.1 µM",90.4%
same,"viability, T/C","second compound 3.16 µM, first compound 0.316 µM",103%
same,"viability, T/C","second compound 3.16 µM, first compound 1 µM",95.8%
same,"viability, T/C","second compound 3.16 µM, first compound 3.16 µM",81.5%
same,"viability, T/C","second compound 3.16 µM, first compound 10 µM",98.2%
same,"viability, T/C","second compound 10 µM, first compound 0.0316 µM",95.8%
same,"viability, T/C","second compound 10 µM, first compound 0.1 µM",76.9%
same,"viability, T/C","second compound 10 µM, first compound 0.316 µM",73.6%
same,"viability, T/C","second compound 10 µM, first compound 1 µM",88.5%
same,"viability, T/C","second compound 10 µM, first compound 3.16 µM",93.8%
same,"viability, T/C","second compound 10 µM, first compound 10 µM",82.5%
